Measurements from the supplement of paper PMC10307832.

Tests used:
Test in all cases: relative viability (nuclei count vs DMSO), 5 days (fraction); higher = more cells survive
Adavosertib + Foretinib = compound: C=CCn1c(=O)c2cnc(Nc3ccc(N4CCN(C)CC4)cc3)nc2n1-c1cccc(C(C)(C)O)n1 [Adavosertib] + COc1cc2c(Oc3ccc(NC(=O)C4(C(=O)Nc5ccc(F)cc5)CC4)cc3F)ccnc2cc1OCCCN1CCOCC1 [Foretinib] (partner 0.25 µM)
Outline: (§1)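 Relative viability divides the nuclei count in treated wells by that in vehicle wells. Lung cancer cell lines were seeded in 1536-well plates, dosed by pin tool the next day, and fixed and stained after 5 days in one step with final 0.05% Triton X-100, 1% formaldehyde and 1 ug/ml Hoechst. Dosing was a single drug or a fixed anchor-drug dose plus five library-drug doses (not always all listed) in √10 steps, and values are medians of duplicate plates imaged at 4×.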

Nelarabine + OSI-027 = compound: COc1nc(N)nc2c1ncn2[C@@H]1O[C@H](CO)[C@@H](O)[C@@H]1O [Nelarabine] + COc1cccc2cc(-c3nc([C@H]4CC[C@H](C(=O)O)CC4)n4ncnc(N)c34)[nH]c12 [OSI-027] (partner 0.5 µM)
Outline: as §1

Nelarabine + Lapatinib = compound: COc1nc(N)nc2c1ncn2[C@@H]1O[C@H](CO)[C@@H](O)[C@@H]1O [Nelarabine] + CS(=O)(=O)CCNCc1ccc(-c2ccc3ncnc(Nc4ccc(OCc5cccc(F)c5)c(Cl)c4)c3c2)o1 [Lapatinib] (partner 2 µM)
Outline: as §1

Nelarabine + Pemetrexed = compound: COc1nc(N)nc2c1ncn2[C@@H]1O[C@H](CO)[C@@H](O)[C@@H]1O [Nelarabine] + Nc1nc2[nH]cc(CCc3ccc(C(=O)N[C@@H](CCC(=O)O)C(=O)O)cc3)c2c(=O)[nH]1 [Pemetrexed] (partner 0.2 µM)
Outline: as §1

Cell Line	relative viability (Adavosertib + Foretinib; first compound 0.01 µM)	relative viability (Adavosertib + Foretinib; first compound 0.03162 µM)	relative viability (Adavosertib + Foretinib; first compound 0.1 µM)	relative viability (Adavosertib + Foretinib; first compound 0.3162 µM)	relative viability (Nelarabine + OSI-027; first compound 0.01 µM)	relative viability (Nelarabine + OSI-027; first compound 0.03162 µM)	relative viability (Nelarabine + OSI-027; first compound 0.1 µM)	relative viability (Nelarabine + OSI-027; first compound 0.3162 µM)	relative viability (Nelarabine + OSI-027; first compound 1 µM)	relative viability (Nelarabine + Lapatinib; first compound 0.01 µM)	relative viability (Nelarabine + Lapatinib; first compound 0.03162 µM)	relative viability (Nelarabine + Lapatinib; first compound 0.1 µM)	relative viability (Nelarabine + Lapatinib; first compound 0.3162 µM)	relative viability (Nelarabine + Lapatinib; first compound 1 µM)	relative viability (Nelarabine + Pemetrexed; first compound 0.01 µM)	relative viability (Nelarabine + Pemetrexed; first compound 0.03162 µM)	relative viability (Nelarabine + Pemetrexed; first compound 0.1 µM)	relative viability (Nelarabine + Pemetrexed; first compound 0.3162 µM)	relative viability (Nelarabine + Pemetrexed; first compound 1 µM)
EPLC-272H	0.674	0.681	0.591	0.247	0.28	0.248	0.269	0.311	0.233	1.12	0.798	0.976	1.02	0.86	0.3	0.288	0.308	0.289	0.378
NCI-H838	1.06	1.06	1.04	1.19	0.463	0.377	0.324	0.426	0.45	1.38	1.07	0.934	1.16	1.14	0.268	0.252	0.287	0.278	0.282
NCI-H661	1.07	1.07	1.12	0.839	0.53	0.652	0.738	0.775	0.651	0.497	0.644	0.556	0.502	0.509	0.963	1.07	0.865	0.899	0.899
NCI-H2170	1.02	0.603	0.923	1.07	0.716	0.67	0.704	0.656	0.753	0.284	0.232	0.262	0.293	0.28	0.269	0.262	0.228	0.318	0.303
NCI-H1651	0.729	0.95	0.812	0.723	0.761	0.677	0.727	0.874	0.631	1.1	1.02	1.05	0.881	0.854	0.406	0.548	0.63	0.643	0.564
LU99A	0.86	0.779	0.771	0.579	0.315	0.295	0.307	0.309	0.291	1.15	1.04	1.19	1.12	1.1	0.197	0.154	0.173	0.192	0.223
LK-2	1.16	1.21	1.64	1.14	0.167		0.159	0.178	0.162	1.23		1.03	1.02	1.05	0.191		0.26	0.273	0.294
NCI-H1666	0.93	0.953	0.961	0.887	0.874	0.955	0.89	0.915	0.908	0.711	0.604	0.57	0.675	0.646	0.957	0.919	0.872	0.936	0.834
H3255	0.892	0.851	0.921	1.04		0.653	0.637	0.585	0.456	0.248	0.267	0.226	0.235	0.201	0.531	0.571	0.557	0.551	0.571
SK-MES-1	1.02	0.924	0.866	0.731	0.698	0.579	0.62	0.683	0.611	0.432	0.544	0.456	0.563	0.555	1.17	0.951	0.957	1.03	1.07
NCI-H2023	0.85	0.933	0.916	0.568	0.545	0.397	0.341	0.416	0.354	1.48	1.15	0.642	0.812	0.948	0.353	0.365	0.268	0.244	0.228
NCI-H1650	1.12	1.15	1.31	0.797	0.713	0.619	0.458	0.767	0.61	0.882	0.834	0.783	0.831	0.826	0.531	0.406	0.381	0.432	0.343
LCLC-97TM1	0.847	0.906	0.994	0.881	0.713	0.483	0.357	0.527	0.56	0.854	0.778	0.667	0.818	1.14			0.153	0.2	0.169
UMC-11	0.981	1.06	1.06	1.08	0.655	0.569	0.586	0.476	0.503	1.05	0.863	1.02	1.02	1.14	0.992	0.696	0.94	0.816	0.884
NCI-H1975	0.967	0.962	0.878	0.778	0.791	0.55	0.87	0.834	0.876	1.27	0.958	0.92	1.11	0.982	0.376	0.278	0.312	0.305	0.303
NCI-H2405	1.05	1.06	1.1	1.13	0.722	0.66	0.471	0.632	0.624	1.14	1.13	0.904	1.06	1.04	0.939	1.11	1.09	1.16	1.01
NCI-H1734	0.954	0.831	0.82	0.759	0.759	0.609	0.547	0.582	0.619	1.23	1.22	1.09	1.08	1.06	0.416	0.473	0.368	0.48	0.464
